US20240425478A1, “CYCLOPENTYLPYRAZOLE CDK2 INHIBITORS” (Genentech, Inc., priority 2021, published 2024)
Several values for one entry are separate records, joined by “and”; a condition that tells them apart may be missing. Equal values may be shown once. Read-outs that look alike come from different tables or passages of the source.

Experiments:
[1] = biological target: T1, Cyclin Dependent Kinase 1/Cyclin A2 (CDK1-cycA2) (Homo sapiens, UniProt P06493); test: CDK1-cycA2 TR-FRET (Lance) enzyme assay; type: biochemical; settings: for Ki: Table O, enzymatic assay; for FS CDK1/CDK2: fold selectivity, enzymatic Ki ratio
T1 construct: purchased ProQinase 0134-0054-1
T1 sequence (P06493 whole entry): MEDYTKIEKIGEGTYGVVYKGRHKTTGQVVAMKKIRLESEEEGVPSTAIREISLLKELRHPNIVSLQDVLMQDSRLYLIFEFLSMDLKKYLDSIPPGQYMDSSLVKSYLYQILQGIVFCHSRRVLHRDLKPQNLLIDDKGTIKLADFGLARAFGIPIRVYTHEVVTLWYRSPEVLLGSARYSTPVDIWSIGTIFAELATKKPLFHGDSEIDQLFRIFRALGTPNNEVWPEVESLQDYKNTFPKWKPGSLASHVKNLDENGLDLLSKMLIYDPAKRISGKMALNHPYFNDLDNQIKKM
T1 sequence (P20248 whole entry partner): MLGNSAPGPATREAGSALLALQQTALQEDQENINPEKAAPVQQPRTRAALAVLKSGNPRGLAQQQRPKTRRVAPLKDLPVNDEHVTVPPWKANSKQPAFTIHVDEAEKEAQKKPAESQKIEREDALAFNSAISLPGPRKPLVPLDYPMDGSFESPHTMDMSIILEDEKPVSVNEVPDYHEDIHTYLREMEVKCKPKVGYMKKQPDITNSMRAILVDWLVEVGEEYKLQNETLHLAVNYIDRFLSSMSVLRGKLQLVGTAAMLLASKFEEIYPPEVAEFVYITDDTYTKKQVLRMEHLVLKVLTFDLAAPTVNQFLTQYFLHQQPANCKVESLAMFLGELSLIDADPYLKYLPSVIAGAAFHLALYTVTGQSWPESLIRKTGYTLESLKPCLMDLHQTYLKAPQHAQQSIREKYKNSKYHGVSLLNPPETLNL
How it was run: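 TR-FRET (Lance) detection of phospho-4E-BP1 with a europium-labelled antibody after EDTA quench (15 mM final); signal taken as acceptor/donor ratio. Enzyme and compound were pre-incubated 30 min in HEPES pH 7.5 buffer with MgCl2, TCEP, BGG and Brij 35. Ki derived by Morrison fit.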

[2] = biological target: T2, Cyclin Dependent Kinase 2/Cyclin E1 (CDK2-cycE1) (Homo sapiens, UniProt P24941); test: CDK2-cycE1 TR-FRET (LANCE) enzyme assay; type: biochemical; settings: for FS CDK1/CDK2 / FS CDK4/CDK2: fold selectivity; for FS CDK1/CDK2: enzymatic CDK1 Ki over CDK2 Ki; for FS CDK4/CDK2: enzymatic CDK4 Ki over CDK2 Ki; for CDK2 Ki fold change in potency versus Comparator D / CDK2 Ki fold change in potency versus Comparator E: in brackets after CDK2 Ki
T2 construct: purchased ProQinase 0050-0055-1
How it was run: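 Kinase reaction buffer: 50 mM HEPES pH 7.5, 10 mM MgCl2, 2 mM TCEP, 0.05% BGG, 0.01% Brij 35, with 30 min compound–enzyme pre-incubation.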

[3] = biological target: T3, Cyclin Dependent Kinase 4/Cyclin D3 (CDK4-cycD3) (Homo sapiens, UniProt P11802); test: CDK4-cycD3 TR-FRET (LANCE) enzyme assay; type: biochemical; settings: for Ki: Table O, enzymatic assay; for FS CDK4/CDK2: fold selectivity, enzymatic Ki ratio
T3 construct: purchased Carna Biosciences 04-105
T3 sequence (P11802 whole entry): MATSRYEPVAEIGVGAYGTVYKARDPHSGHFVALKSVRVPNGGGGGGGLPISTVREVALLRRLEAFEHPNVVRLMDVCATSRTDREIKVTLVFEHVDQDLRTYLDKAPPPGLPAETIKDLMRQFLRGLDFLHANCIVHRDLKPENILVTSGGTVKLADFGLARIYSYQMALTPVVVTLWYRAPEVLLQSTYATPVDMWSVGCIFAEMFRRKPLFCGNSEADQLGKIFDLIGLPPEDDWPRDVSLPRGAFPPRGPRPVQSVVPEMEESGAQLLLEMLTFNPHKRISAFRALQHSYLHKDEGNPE
T3 sequence (P30281 whole entry partner): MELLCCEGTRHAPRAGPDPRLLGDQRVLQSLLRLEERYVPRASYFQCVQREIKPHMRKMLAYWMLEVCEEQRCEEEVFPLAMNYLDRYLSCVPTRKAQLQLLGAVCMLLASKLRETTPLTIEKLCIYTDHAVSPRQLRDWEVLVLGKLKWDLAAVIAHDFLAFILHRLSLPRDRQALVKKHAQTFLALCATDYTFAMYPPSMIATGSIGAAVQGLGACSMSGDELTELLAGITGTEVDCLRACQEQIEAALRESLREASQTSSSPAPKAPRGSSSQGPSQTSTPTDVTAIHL
How it was run: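 Compound dose responses pre-incubated 30 min with enzyme mix in 50 mM HEPES pH 7.5, 10 mM MgCl2, 2 mM TCEP, 0.05% BGG, 0.01% Brij 35. Reaction quenched with EDTA (15 mM final); Eu-anti-phospho-4E-BP1 TR-FRET detection, acceptor/donor ratio. Ki derived by Morrison equation.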

[4] = test system: OVISE (JCRB1043, CCNE1-amplified); test: OVISE EdU incorporation cell proliferation assay (CDK2-dependent); type: cell-based; settings: for IC50 / FS SKOV-3/OVISE / FS p-H3/OVISE: Table O; for IC50: cellular assay, read-out: CDK2 OVISE IC50; for FS SKOV-3/OVISE / FS p-H3/OVISE: fold selectivity; for FS SKOV-3/OVISE: cellular SKOV-3 IC50 over OVISE IC50; for FS p-H3/OVISE: cellular p-H3 IC50 over OVISE IC50; for CDK2 OVISE IC50 fold change in potency versus Comparator D: Table R; for CDK2 OVISE IC50 fold change in potency versus Comparator D / CDK2 OVISE IC50 fold change in potency versus Comparator E: in brackets after OVISE IC50; for CDK2 OVISE IC50 fold change in potency versus Comparator E: Table S
How it was run: (§1)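 EdU incorporation (0.5 μM final, last 8 h) follows a 16 h compound exposure at 37 °C, 5% CO2 in RPMI plus 10% FBS, 0.5% DMSO. After fixation, imaging scores EdU-positive cells; a 4-parameter logistic fit of that fraction gives IC50.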

SKOV-3 (ATCC HTB-77) = test: SKOV-3 EdU incorporation cell proliferation assay (CDK4/6-dependent); type: cell-based; settings: for IC50: Homo sapiens, cellular assay, read-out: CDK4/6 SKOV-3 IC50; for FS SKOV-3/OVISE: fold selectivity
How it was run: as §1

HCT116 cells = test: p-H3 HCT-116 mitotic release cell proliferation assay (cellular CDK1); type: cell-based; settings: for IC50: Homo sapiens, HCT-116, Table O, cellular assay, read-out: CDK1 p-H3 IC50
How it was run: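 Phospho-Histone H3 (Ser10) in lysates was quantified by a two-antibody HTRF FRET read (≥2 h, room temperature). Before this, HCT116 cells held in mitosis by 16 h of 500 nM nocodazole were treated with compound for 4 h at 37 °C, 0.1% DMSO.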

[5] = Table O, enzymatic assay, read-out: CDK2 Ki
[6] = Table R, enzymatic assay, read-out: CDK2 Ki
[7] = Table S, enzymatic assay, read-out: CDK2 Ki
[8] = SKOV-3/OVISE fold-selectivity cellular assay data

SMILES: CC(C)(C)NC(=O)O[C@@H]1CC[C@H](c2cc(Nc3cccnn3)n[nH]2)C1 [Example 4I, (1R,3S)-3-(3-(pyridazin-3-ylamino)-1H-pyrazol-5-yl)cyclopentyl tert-butylcarbamate]
- Ki [1]: 45 nM
- FS CDK1/CDK2 ([1]; Table R): 18
- FS CDK1/CDK2 ([1]; Table S): 18
- Ki [2, 5]: 2.5 nM
- FS CDK1/CDK2 ([2]; Table O): 18
- FS CDK4/CDK2 ([2]; Table O): 13
- Ki [2, 6]: 2.5 nM
- CDK2 Ki fold change in potency versus Comparator D ([2]; Table R): 1.1 fold
- Ki [2, 7]: 2.5 nM
- CDK2 Ki fold change in potency versus Comparator E ([2]; Table S): 0.2 fold
- Ki [3]: 33 nM
- FS CDK4/CDK2 increased over Comparator D, (+) sign ([3]; Table R): (+)
- FS CDK4/CDK2 ([3]; Table R): 13
- FS CDK4/CDK2 ([3]; Table S): 13
- IC50 [4]: 240 nM
- FS SKOV-3/OVISE [4]: 20
- FS p-H3/OVISE [4]: 0.63
- CDK2 OVISE IC50 fold change in potency versus Comparator D [4]: 16 fold
- CDK2 OVISE IC50 fold change in potency versus Comparator E [4]: 0.7 fold
- IC50 (SKOV-3 (ATCC HTB-77); SK-OV-3, Table O): 4900 nM
- selectivity for CDK2 over CDK4 compared with Comparator E (SKOV-3 (ATCC HTB-77); [8]): increase in selectivity for CDK2 over CDK4
- FS SKOV-3/OVISE increased over Comparator D, (+) sign (SKOV-3 (ATCC HTB-77); Table R): (+)
- FS SKOV-3/OVISE (SKOV-3 (ATCC HTB-77); Table R, cellular IC50 ratio): 20
- FS SKOV-3/OVISE increased over Comparator E, (+) sign (SKOV-3 (ATCC HTB-77); Table S): (+)
- FS SKOV-3/OVISE (SKOV-3 (ATCC HTB-77); Table S, cellular IC50 ratio): 20
- IC50 (HCT116 cells): 150 nM

SMILES: CC(C)(C)NC(=O)O[C@@H]1CC[C@H](c2cc(Nc3ncccn3)n[nH]2)C1 [Example 4J, (1R,3S)-3-(3-(pyrimidin-2-ylamino)-1H-pyrazol-5-yl)cyclopentyl tert-butylcarbamate]
- Ki [1]: 170 nM
- FS CDK1/CDK2 increased over Comparator D, (+) sign ([1]; Table R): (+)
- FS CDK1/CDK2 ([1]; Table R): 68
- FS CDK1/CDK2 increased over Comparator E, (+) sign ([1]; Table S): (+)
- FS CDK1/CDK2 ([1]; Table S): 68
- Ki [2, 5]: 2.5 nM
- FS CDK1/CDK2 ([2]; Table O): 68
- FS CDK4/CDK2 ([2]; Table O): 4.4
- Ki [2, 6]: 2.5 nM
- CDK2 Ki fold change in potency versus Comparator D ([2]; Table R): 1.1 fold
- Ki [2, 7]: 2.5 nM
- CDK2 Ki fold change in potency versus Comparator E ([2]; Table S): 0.2 fold
- Ki [3]: 11 nM
- FS CDK4/CDK2 increased over Comparator D, (+) sign ([3]; Table R): (+)
- FS CDK4/CDK2 ([3]; Table R): 4.4
- FS CDK4/CDK2 ([3]; Table S): 4.4
- IC50 [4]: 320 nM
- FS SKOV-3/OVISE [4]: 3.8
- FS p-H3/OVISE [4]: 1.1
- CDK2 OVISE IC50 fold change in potency versus Comparator D [4]: 12 fold
- CDK2 OVISE IC50 fold change in potency versus Comparator E [4]: 0.5 fold
- IC50 (SKOV-3 (ATCC HTB-77); SK-OV-3, Table O): 1200 nM
- IC50 (SKOV-3 (ATCC HTB-77); SK-OV-3, Table R): 1200 nM
- IC50 (SKOV-3 (ATCC HTB-77); SK-OV-3, Table S): 1200 nM
- FS SKOV-3/OVISE increased over Comparator D, (+) sign (SKOV-3 (ATCC HTB-77); Table R): (+)
- FS SKOV-3/OVISE (SKOV-3 (ATCC HTB-77); Table R, cellular IC50 ratio): 3.8
- FS SKOV-3/OVISE (SKOV-3 (ATCC HTB-77); Table S, cellular IC50 ratio): 3.8
- IC50 (HCT116 cells): 360 nM

SMILES: CC(C)(C)NC(=O)O[C@@H]1CC[C@H](c2cc(Nc3ccnnc3)n[nH]2)C1 [Example 4K, (1R,3S)-3-(3-(pyridazin-4-ylamino)-1H-pyrazol-5-yl)cyclopentyl tert-butylcarbamate]
- Ki [1]: 27 nM
- FS CDK1/CDK2 increased over Comparator D, (+) sign ([1]; Table R): (+)
- FS CDK1/CDK2 ([1]; Table R): 54
- FS CDK1/CDK2 ([1]; Table S): 54
- FS CDK1/CDK2 ([1]; Table P): 54
- Ki [2, 5]: 0.45 nM
- FS CDK1/CDK2 ([2]; Table O): 54
- FS CDK4/CDK2 ([2]; Table O): 104
- Ki [2, 6]: 0.45 nM
- CDK2 Ki fold change in potency versus Comparator D ([2]; Table R): 6 fold
- Ki [2, 7]: 0.45 nM
- CDK2 Ki fold change in potency versus Comparator E ([2]; Table S): 1.2 fold
- Ki ([2]; enzymatic assay, Table P, read-out: CDK2 Ki): 0.45 nM
- CDK2 Ki fold potency relative to Comparator A ([2]; first bracket in CDK2 Ki cell, Table P): 0.4 fold
- Ki ([2]; read-out: CDK2 activity / potency (enzymatic assay)): ≤ 1 nM and 0.45 nM
- CDK2 Ki fold potency relative to Comparator B ([2]; second bracket in CDK2 Ki cell, Table P): 2 fold
- Ki [3]: 52 nM
- FS CDK4/CDK2 increased over Comparator D, (+) sign ([3]; Table R): (+)
- FS CDK4/CDK2 increased over Comparator E, (+) sign ([3]; Table S): (+)
- CDK2 cell potency compared with Comparator E ([4]; CDK2 OVISE cellular assay data): more potent CDK2 cell inhibitors compared to Comparator E
- IC50 [4]: 78 nM
- FS SKOV-3/OVISE [4]: 71
- FS p-H3/OVISE [4]: 2.1
- CDK2 OVISE IC50 fold change in potency versus Comparator D [4]: 49 fold
- CDK2 OVISE IC50 fold change in potency versus Comparator E [4]: 2.2 fold
- CDK2 OVISE IC50 fold potency relative to Comparator A ([4]; first bracket in OVISE IC50 cell, Table P): 0.5 fold
- CDK2 OVISE IC50 fold potency relative to Comparator B ([4]; second bracket in OVISE IC50 cell, Table P): 1.8 fold
- IC50 (SKOV-3 (ATCC HTB-77); SK-OV-3, Table O): 5500 nM
- CDK2 selectivity over CDK4/6 compared with Comparators A and B (SKOV-3 (ATCC HTB-77); [8]): at least three times more CDK2 selective over CDK4/6
- selectivity for CDK2 over CDK4 compared with Comparator E (SKOV-3 (ATCC HTB-77); [8]): increase in selectivity for CDK2 over CDK4
- FS SKOV-3/OVISE increased over Comparator D, (+) sign (SKOV-3 (ATCC HTB-77); Table R): (+)
- FS SKOV-3/OVISE (SKOV-3 (ATCC HTB-77); Table R, cellular IC50 ratio): 71
- FS SKOV-3/OVISE increased over Comparator E, (+) sign (SKOV-3 (ATCC HTB-77); Table S): (+)
- FS SKOV-3/OVISE (SKOV-3 (ATCC HTB-77); Table S, cellular IC50 ratio): 71
- FS SKOV-3/OVISE compared with Comparator A (SKOV-3 (ATCC HTB-77); first sign in cell, Table P): (+)
- FS SKOV-3/OVISE (SKOV-3 (ATCC HTB-77); cellular IC50 ratio (CDK4/6 over CDK2), Table P): 71
- FS SKOV-3/OVISE compared with Comparator B (SKOV-3 (ATCC HTB-77); second sign in cell, Table P): (+)
- pH3/OVISE fold selectivity (CDK1 over CDK2, cellular assay data) (HCT116 cells): 2.1 fold
- IC50 (HCT116 cells): 160 nM
- FS p-H3/OVISE compared with Comparator A (HCT116 cells; first sign in cell, Table P): (+)
- FS p-H3/OVISE (HCT116 cells; fold selectivity, cellular IC50 ratio (CDK1 over CDK2), Table P): 2.1
- FS p-H3/OVISE compared with Comparator B (HCT116 cells; second sign in cell, Table P): (+)
